Consider 26 compounds from ChEMBL document CHEMBL3272235, “alpha-(2-Pyridine)benzyl aryl ketones as potential hypocholesteremic agents” (J Med Chem, 1978).

Series [1] deals with Rattus norvegicus. The experiment in a line: Hypocholesteremic activity in Sprague-Dawley rat assessed as change in serum cholesterol level at 25 mg/kg, po administered through intubation tube daily for 7 days measured 24 hrs post last dose relative to vehicle-treated control. The series is classed as functional.
Series [2] relates to Rattus norvegicus. The experiment in a line: Estrogenic activity in ovariectomized female Sprague-Dawley rat assessed as change in uterus weight measured as micrograms of […]-estradiol that produce an estrogenic response equivalent to compound at 25 mg/kg, po administered through intubation tube daily for 7 days. As to conditions: in vivo, 168 h. Also noted: dose 25 mg/kg, route oral. It counts as ADME, organism-based.

For `COc1ccc(C(=O)C(c2ccccc2)c2ccccn2)cc1Br` (configuration not stated), the Activity in series [1] was 11.3%.

With `O=C(c1ccccc1)C(c1ccccc1)c1ccccn1` (configuration not stated), the Activity in series [1] is listed as 2.5%.

For the compound `O=C(c1ccccc1Br)C(c1ccccc1)c1ccccn1` (configuration not stated), the Activity in series [1] is listed as -54.1%. Besides, in series [2], the estradiol equivalent worked out at 0.87 µg.

Take `O=C(c1cccc(Br)c1)C(c1ccccc1)c1ccccn1` (configuration not stated): the Activity in series [1] was 6.7%.

Turning to `O=C(c1ccc(Br)cc1)C(c1ccccc1)c1ccccn1` (configuration not stated), the Activity in series [1] is -22.8%.

Turning to `O=C(c1ccccc1Cl)C(c1ccccc1)c1ccccn1` (configuration not stated), the Activity in series [1] is listed as -56.9%. Further, the estradiol equivalent in series [2] was 0.8 µg.

As to `O=C(c1cccc(Cl)c1)C(c1ccccc1)c1ccccn1` (configuration not stated), the Activity in series [1] was 0%.

With `O=C(c1ccc(Cl)cc1)C(c1ccccc1)c1ccccn1` (configuration not stated), the Activity in series [1] is recorded as -3.5%.

In the case of `O=C(c1ccccc1F)C(c1ccccc1)c1ccccn1` (configuration not stated), the Activity in series [1] is listed as -30%. Besides, in series [2], the estradiol equivalent is 0.45 µg.

As to `O=C(c1ccc(F)cc1)C(c1ccccc1)c1ccccn1` (configuration not stated), the Activity in series [1] is given as -1.3%.

Turning to `O=C(c1ccccc1I)C(c1ccccc1)c1ccccn1` (configuration not stated), in series [1], the Activity was -77.1%. The estradiol equivalent in series [2] is 0.7 µg.

`O=C(c1ccc(I)cc1)C(c1ccccc1)c1ccccn1` (configuration not stated): the Activity in series [1] is recorded as 0%.

For `Cc1ccccc1C(=O)C(c1ccccc1)c1ccccn1` (configuration not stated), in series [1], the Activity is -64.9%. The estradiol equivalent in series [2] was found to be 0.82 µg.

Regarding `Cc1cccc(C(=O)C(c2ccccc2)c2ccccn2)c1` (configuration not stated), in series [1], the Activity was 13.2%.

Turning to `Cc1ccc(C(=O)C(c2ccccc2)c2ccccn2)cc1` (configuration not stated), in series [1], the Activity worked out at 1.5%.

In the case of `CC(C)(C)c1ccccc1C(=O)C(c1ccccc1)c1ccccn1` (configuration not stated), the Activity in series [1] is -42%. In series [2], the estradiol equivalent amounted to 0.29 µg.

Consider `CC(C)(C)c1ccc(C(=O)C(c2ccccc2)c2ccccn2)cc1` (configuration not stated), for which the Activity in series [1] is recorded as 0%.

For the compound `COc1ccc(C(=O)C(c2ccccc2)c2ccccn2)cc1` (configuration not stated), the Activity in series [1] is reported as -15.7%.

As for `COc1ccc(C(=O)C(c2ccccc2)c2ccccn2)cc1OC` (configuration not stated), the Activity in series [1] was 6.3%.

For `O=C(c1ccc2c(c1)OCO2)C(c1ccccc1)c1ccccn1` (configuration not stated), the Activity in series [1] is listed as 6.3%.

For `O=C(c1ccccc1Oc1ccccc1)C(c1ccccc1)c1ccccn1` (configuration not stated), in series [1], the Activity was -15%.

Take `O=C(c1cccc(OCc2ccccc2)c1)C(c1ccccc1)c1ccccn1` (configuration not stated): the Activity in series [1] turned out to be 12.1%.

On to `O=C(c1ccc(OCc2ccccc2)cc1)C(c1ccccc1)c1ccccn1` (configuration not stated), for which, in series [1], the Activity is 9.3%.

With `O=C(c1cccnc1)C(c1ccccc1)c1ccccn1` (configuration not stated), the Activity in series [1] is recorded as -2.1%.

With `O=C(c1ccc2ccccc2c1)C(c1ccccc1)c1ccccn1` (configuration not stated), in series [1], the Activity is on record as 0%.

Turning to `O=C(c1cc(-c2ccccc2)nc2cc(Cl)ccc12)C(c1ccccc1)c1ccccn1` (configuration not stated), the Activity in series [1] worked out at 3.8%.
